Patent US11464953B2, “Water-soluble microneedle spicules and non-aqueous cosmetic composition containing the same” (PAEAN AESTHETICS INC., priority 2015, dated 2022)

Assay: HPLC stability test of vitamin C in non-aqueous cosmetics
Assay type: physicochemical
Conditions: maintained for 24 months
Method: To confirm the stability of vitamin C (ascorbic acid) contained in non-aqueous cosmetics, the content of the reduced form of ascorbic acid was measured by HPLC for 24 months. The non-aqueous cosmetics in an amount of 0.1 g was collected and distilled water was added to a final volume of 1 mL, and vehemently mixed. Then, the water-soluble ascorbic acid was eluted and the aqueous solution containing ascorbic acid was diluted and used for analysis. The column used was the C18 (4.6×150 mm) and 0.025 M phosphoric acid (pH 2.5) was used for the mobile phase. After adding 10 mM DTT to a 100-fold diluted sample for analysis, the amounts of the reduced form in the sample in which ascorbic acid was all converted to a reduced form and the sample in which 10 mM DTT was not added were compared and thereby the amounts of the ascorbic acid in the reduced form contained in the cosmetics were confirmed. The samples were prepared for 0, 3, 6, 9, 12, 18, and 24 months and analyzed by HPLC. […] The amounts of ascorbic acid in the reduced form was calculated as follows. [table]

O=C1O[C@H]([C@@H](O)CO)C(O)=C1O [ascorbic acid]
content of ascorbic acid in the reduced form (Initial AA/Total AA × 100): ≥ 96%
